Peptide text beside a SMILES is read from it. * marks the point of attachment. Biotin = O=C1N[C@H]2[C@H](CS[C@H]2CCCCC(=O)*)N1
Tests used:
[1] = tested on: T98G human glioblastoma cells; experiment: Peptide incorporation into T98G cells (immunocytochemistry, cell counting); type: cell-based; conditions: 6 hours; for Peptide incorporation (% of cells): T98G cells, 10 µM biotinylated peptide, Alexa-labeled avidin/streptavidin fluorescence microscopy, minimum 200 cells per experiment, mean ± S.E.M., triplicated
Protocol: (§1) Cells containing the biotinylated peptide were detected using Alexa-labeled avidin (green fluorescence) and those displaying a normal or a destroyed MT network were detected with an anti-tubulin antibody (red fluorescence) ( Figure 1A-B ). Then, we counted a minimum of 200 cells per slide containing or not the peptide, and with a normal or destroyed microtubule network ( Figure 1C ). As illustrated on Figure 1A glioblastoma cells contain a rich MT network. […] Cells were plated on cover slips and cultured in media containing biotinylated peptides (10 μM) for 6 hours. […] The cells were then incubated during 10 min in a 0.5% triton X-100 permeabilization solution, and washed 3 times in PBS. Next, they were incubated in a blocking solution (PBS 5% BSA) for 15 min, then incubated with mouse anti-ß-tubulin antibody (Sigma) 1/200 overnight. Tubulin and biotinylated peptides were localized using respectively Alexa 568 nm anti-mouse antibody and streptavidin Alexa 488 nm (Molecular Probes) 1/200 for 1 hour, followed by washing in PBS. […] Sigma) for 5 min, washed twice with PBS, then cover slips were mounted with an antifading solution. Observations were performed with an Olympus confocal microscope (BX50) using Fluoview.3.1. Software or a Leica DMI6000 inverted microscope and analyzed with Metamorph 7.1.7.0. software. We counted cells containing the peptide and cells displaying a destroyed MT network. Experiments were repeated at least three times, and a minimum of 200 cells was scored during each experiment.

[2] = tested on: T98G human glioblastoma cells; experiment: Disintegration of the microtubule network in T98G cells (anti-tubulin immunostaining, cell counting); type: cell-based; conditions: T98G cells, 10 µM biotinylated peptide, 6 hours; anti-tubulin immunostaining; minimum 200 cells per experiment; mean ± S.E.M., triplicated
Protocol: as §1

Compound | Peptide incorporation (% of cells) [1] | Disintegration of MT (% of cells) [2] | Cell penetration / internalization in T98G cells (in words) ([1]; 10 µM, immunocytochemistry, compared to original NFL-TBS.40-63)
CC(C)C[C@H](NC(=O)[C@H](CO)NC(=O)[C@H](CO)NC(=O)[C@H](CO)NC(=O)[C@@H](NC(=O)[C@@H]1CCCN1C(=O)[C@H](C)NC(=O)[C@H](CO)NC(=O)[C@H](Cc1ccc(O)cc1)NC(=O)[C@H](CO)NC(=O)[C@H](CO)NC(=O)[C@H](Cc1ccc(O)cc1)NC(=O)CCCC[C@@H]1SC[C@@H]2NC(=O)N[C@@H]21)C(C)C)C(=O)N[C@@H](CO)C(=O)N[C@H](C(=O)N[C@@H](CCCNC(=N)N)C(=O)N[C@@H](CCCNC(=N)N)C(=O)N[C@@H](CO)C(=O)N[C@@H](Cc1ccc(O)cc1)C(=O)N[C@@H](CO)C(=O)N[C@@H](CO)C(=O)N[C@@H](CO)C(=O)N[C@@H](CO)C(=O)NCC(=O)N[C@@H](CO)C(N)=O)C(C)C [Ala6Ala] (Biotin-YSSYSAPVSSSLSVRRSYSSSSGS-NH2) | 50.3±4.6 % of cells | 48.1±6.6 % of cells | –
CC(C)C[C@H](NC(=O)[C@H](CO)NC(=O)[C@H](CO)NC(=O)[C@H](CO)NC(=O)[C@@H](NC(=O)[C@@H]1CCCN1C(=O)[C@H](C)NC(=O)[C@H](CO)NC(=O)[C@H](Cc1ccc(O)cc1)NC(=O)[C@H](CO)NC(=O)[C@H](CO)NC(=O)[C@H](Cc1ccc(O)cc1)NC(=O)CCCC[C@@H]1SC[C@@H]2NC(=O)N[C@@H]21)C(C)C)C(=O)N[C@@H](CO)C(=O)N[C@H](C(=O)N[C@@H](C)C(=O)N[C@@H](CCCNC(=N)N)C(=O)N[C@@H](CO)C(=O)N[C@@H](Cc1ccc(O)cc1)C(=O)N[C@@H](CO)C(=O)N[C@@H](CO)C(=O)N[C@@H](CO)C(=O)N[C@@H](CO)C(=O)NCC(=O)N[C@@H](CO)C(N)=O)C(C)C [Arg15Ala] (Biotin-YSSYSAPVSSSLSVARSYSSSSGS-NH2) | 18.1±1.3 % of cells | 25.5±6.3 % of cells | –
CC(C)C[C@H](NC(=O)[C@H](CO)NC(=O)[C@H](CO)NC(=O)[C@H](CO)NC(=O)[C@@H](NC(=O)[C@@H]1CCCN1C(=O)[C@H](C)NC(=O)[C@H](CO)NC(=O)[C@H](Cc1ccc(O)cc1)NC(=O)[C@H](CO)NC(=O)[C@H](CO)NC(=O)[C@H](Cc1ccc(O)cc1)NC(=O)CCCC[C@@H]1SC[C@@H]2NC(=O)N[C@@H]21)C(C)C)C(=O)N[C@@H](CO)C(=O)N[C@H](C(=O)N[C@@H](CCCNC(=N)N)C(=O)N[C@@H](C)C(=O)N[C@@H](CO)C(=O)N[C@@H](Cc1ccc(O)cc1)C(=O)N[C@@H](CO)C(=O)N[C@@H](CO)C(=O)N[C@@H](CO)C(=O)N[C@@H](CO)C(=O)NCC(=O)N[C@@H](CO)C(N)=O)C(C)C [Arg16Ala] (Biotin-YSSYSAPVSSSLSVRASYSSSSGS-NH2) | 0 % of cells | 15.6±3.0 % of cells | –
CC(C)C[C@H](NC(=O)[C@H](CO)NC(=O)[C@H](CO)NC(=O)[C@H](CO)NC(=O)[C@@H](NC(=O)[C@@H]1CCCN1C(=O)[C@H](C)NC(=O)[C@H](CO)NC(=O)[C@H](Cc1ccc(O)cc1)NC(=O)[C@H](CO)NC(=O)[C@H](CO)NC(=O)[C@H](Cc1ccc(O)cc1)NC(=O)CCCC[C@@H]1SC[C@@H]2NC(=O)N[C@@H]21)C(C)C)C(=O)N[C@@H](CO)C(=O)N[C@H](C(=O)N[C@@H](CCCNC(=N)N)C(=O)N[C@@H](CCCCN)C(=O)N[C@@H](CO)C(=O)N[C@@H](Cc1ccc(O)cc1)C(=O)N[C@@H](CO)C(=O)N[C@@H](CO)C(=O)N[C@@H](CO)C(=O)N[C@@H](CO)C(=O)NCC(=O)N[C@@H](CO)C(N)=O)C(C)C [Arg16Lys] (Biotin-YSSYSAPVSSSLSVRKSYSSSSGS-NH2) | 32.9±1.3 % of cells | 36.9±0.9 % of cells | –
CC(C)C[C@H](NC(=O)[C@H](CO)NC(=O)[C@H](CO)NC(=O)[C@H](CO)NC(=O)[C@@H](NC(=O)[C@@H]1CCCN1C(=O)[C@H](C)NC(=O)[C@H](CO)NC(=O)[C@H](Cc1ccc(O)cc1)NC(=O)[C@H](CO)NC(=O)[C@H](CO)NC(=O)[C@H](Cc1ccc(O)cc1)NC(=O)CCCC[C@@H]1SC[C@@H]2NC(=O)N[C@@H]21)C(C)C)C(=O)N[C@@H](CO)C(=O)N[C@H](C(=O)N[C@@H](CCCNC(=N)N)C(=O)N[C@@H](CCCNC(=N)N)C(=O)N[C@@H](CO)C(=O)N[C@@H](Cc1ccc(O)cc1)C(=O)N[C@@H](CO)C(=O)N[C@@H](CO)C(=O)N[C@@H](CO)C(=O)N[C@@H](CO)C(=O)N[C@@H](C)C(=O)N[C@@H](CO)C(N)=O)C(C)C [Gly23Ala] (Biotin-YSSYSAPVSSSLSVRRSYSSSSAS-NH2) | 6.2±6.2 % of cells | 16.9±4.5 % of cells | only weak cell-penetrating activity
CC(C)[C@H](NC(=O)[C@H](CO)NC(=O)[C@H](C)NC(=O)[C@H](CO)NC(=O)[C@H](CO)NC(=O)[C@H](CO)NC(=O)[C@@H](NC(=O)[C@@H]1CCCN1C(=O)[C@H](C)NC(=O)[C@H](CO)NC(=O)[C@H](Cc1ccc(O)cc1)NC(=O)[C@H](CO)NC(=O)[C@H](CO)NC(=O)[C@H](Cc1ccc(O)cc1)NC(=O)CCCC[C@@H]1SC[C@@H]2NC(=O)N[C@@H]21)C(C)C)C(=O)N[C@@H](CCCNC(=N)N)C(=O)N[C@@H](CCCNC(=N)N)C(=O)N[C@@H](CO)C(=O)N[C@@H](Cc1ccc(O)cc1)C(=O)N[C@@H](CO)C(=O)N[C@@H](CO)C(=O)N[C@@H](CO)C(=O)N[C@@H](CO)C(=O)NCC(=O)N[C@@H](CO)C(N)=O [Leu12Ala] (Biotin-YSSYSAPVSSSASVRRSYSSSSGS-NH2) | 0 % of cells | 15.5±2.8 % of cells | –
CC(C)[C@H](NC(=O)[C@H](CO)NC(=O)[C@@H](NC(=O)[C@H](CO)NC(=O)[C@H](CO)NC(=O)[C@H](CO)NC(=O)[C@@H](NC(=O)[C@@H]1CCCN1C(=O)[C@H](C)NC(=O)[C@H](CO)NC(=O)[C@H](Cc1ccc(O)cc1)NC(=O)[C@H](CO)NC(=O)[C@H](CO)NC(=O)[C@H](Cc1ccc(O)cc1)NC(=O)CCCC[C@@H]1SC[C@@H]2NC(=O)N[C@@H]21)C(C)C)C(C)C)C(=O)N[C@@H](CCCNC(=N)N)C(=O)N[C@@H](CCCNC(=N)N)C(=O)N[C@@H](CO)C(=O)N[C@@H](Cc1ccc(O)cc1)C(=O)N[C@@H](CO)C(=O)N[C@@H](CO)C(=O)N[C@@H](CO)C(=O)N[C@@H](CO)C(=O)NCC(=O)N[C@@H](CO)C(N)=O [Leu12Val] (Biotin-YSSYSAPVSSSVSVRRSYSSSSGS-NH2) | 58.6±5.0 % of cells | 43.8±1.7 % of cells | –
CC(C)C[C@H](NC(=O)[C@H](CO)NC(=O)[C@H](CO)NC(=O)[C@H](CO)NC(=O)[C@@H](NC(=O)[C@H](C)NC(=O)[C@H](C)NC(=O)[C@H](CO)NC(=O)[C@H](Cc1ccc(O)cc1)NC(=O)[C@H](CO)NC(=O)[C@H](CO)NC(=O)[C@H](Cc1ccc(O)cc1)NC(=O)CCCC[C@@H]1SC[C@@H]2NC(=O)N[C@@H]21)C(C)C)C(=O)N[C@@H](CO)C(=O)N[C@H](C(=O)N[C@@H](CCCNC(=N)N)C(=O)N[C@@H](CCCNC(=N)N)C(=O)N[C@@H](CO)C(=O)N[C@@H](Cc1ccc(O)cc1)C(=O)N[C@@H](CO)C(=O)N[C@@H](CO)C(=O)N[C@@H](CO)C(=O)N[C@@H](CO)C(=O)NCC(=O)N[C@@H](CO)C(N)=O)C(C)C [Pro7Ala] (Biotin-YSSYSAAVSSSLSVRRSYSSSSGS-NH2) | 16.7±4.6 % of cells | 26.6±5.9 % of cells | –

Reference: PMC3494675, “Structure-Function Analysis of the Glioma Targeting NFL-TBS.40-63 Peptide Corresponding to the Tubulin-Binding Site on the Light Neurofilament Subunit” (PLoS ONE, 2012)
